{
  "source": "patent US9399625B2",
  "about": "“Acridone compounds” (Oregon Health & Science University, priority 2006, dated 2016)",
  "key": {"[1]": {"tested_on": "QN-sensitive P. yoelii (K)", "assay": "In vivo synergism T3.5 and quinine, 6-day Thompson test in mice", "conditions": "alone or fixed-ratio combination (dose of each)", "procedure": "In vivo synergism was assessed using the 6-day Thompson test in mice infected with QN-sensitive P. yoelii (K), comparing the efficacy of T3.5 alone, QN alone and T3.5:QN combinations (Table 7). Dosages were established using a rigorous fixed-ratio combination dosing protocol and results were assessed using Calcusyn software to determine synergy. As in the case of the in vitro combination, there was evident in vivo synergism."}, "[2]": {"tested_on": "murine splenic lymphocytes (MSLCs)", "assay": "Cytotoxicity by Alamar Blue assay", "conditions": "for IC50: cytotoxicity"}, "[3]": {"assay": "In vitro heme aggregation assay", "conditions": "25 mM phosphate buffer, pH 4.8, 30 minutes at room temperature", "procedure": "This example describes the in vitro inhibition of heme aggregation by xanthone 2,3,4,5,6-pentahydroxyxanthone. Conditions: 25 mM Phosphate buffer, pH 5.2, 1 hour incubation at 37° C. Further details of this assay are described by Ignatushchenko et al. in Xanthones as antimalarial agents; studies of a possible mode of action.\nThis example describes visual evidence that acridones disclosed herein form soluble complexes with heme under mildly acidic conditions. […] Employing the same assay conditions, heme was mixed with T2 or T3.5 under mildly acidic conditions (25 mM phosphate buffer, pH 4.8) and monitored. […] Without being limited to theory, it is believed that for some compounds inhibition of heme aggregation in vitro can be correlated with inhibition of hemozoin formation in vivo."}, "[4]": {"tested_on": "MDR Dd2 strain of P. falciparum", "assay": "In vitro antimalarial activity, SYBR Green MSF assay, Dd2", "assay_type": "cell-based", "conditions": "Plasmodium falciparum, DD2", "text": "This example describes the screening of disclosed antimalarial acridones against the CQ-sensitive D6 strain and the MDR Dd2 strain of P. falciparum for in vitro antimalarial activity.\nAs shown in Table 3 and Table 4, selected soluble acridone derivatives were screened for antimalarial activity against the CQ-sensitive D6 and the MDR Dd2 strains of P. falciparum."}},
  "note": "Where two headings read alike, the source gives them in different places.",
  "data": [
    {"smiles": "CCN(CC)CCOc1ccc2c(=O)c3ccc(Cl)cc3n(CCN(CC)CC)c2c1", "note": "[T3.5, 3-(2-diethylaminoethoxy)-6-chloro-10-(2-diethylaminoethyl)-9-acridone]", "values": [
      {"measurement": "ED50 dose", "setting": "[1]", "value": 56, "unit": "mg/kg/day"},
      {"measurement": "ED75 dose", "setting": "[1]", "value": 70, "unit": "mg/kg/day"},
      {"measurement": "ED90 dose", "setting": "[1]", "value": 88, "unit": "mg/kg/day"},
      {"measurement": "cytotoxicity at the highest tested concentration", "setting": "[2]; 25 μM", "value": "no evidence of cytotoxicity"},
      {"measurement": "IVTI", "setting": "[2]; ratio of cytotoxicity IC50 (vs. MSLCs) to antimalarial IC50 against D6", "value": ">500"},
      {"measurement": "IC50", "setting": "[2]; read-out: IC50, MSLCs, Table 2", "value": "> 25000", "unit": "nM"},
      {"measurement": "IC50", "setting": "[2]; read-out: IC50 MSLCs, Table 4", "value": "> 25000", "unit": "nM"},
      {"measurement": "formation of heme aggregates", "setting": "[3]", "value": "prevent the formation of heme aggregates"},
      {"measurement": "IC50", "setting": "[4]; Table 2, average of 4 independent experiments, read-out: IC50, Dd2", "value": 58, "unit": "nM"},
      {"measurement": "IC50", "setting": "[4]; Table 4, read-out: IC50 P. falciparum Dd2", "value": 77, "unit": "nM"}
    ]}
  ]
}
